According to patent US4122184A, “Benzimidazole insecticides” (priority 1977, dated 1978):

Key:
Bean Leaf Beetle [1] = assay: Field trial, stomach poison test; format: in vivo
Description: (§1) Leaves from the infested plant are treated with different concentrations of the test compounds, either by spraying with a DeVilbiss Special Atomizer (5004) at 10 psi or by dipping the leaves in solutions containing the compound. The leaves are then allowed to air dry.
(§2) After the leaves have dryed, they are placed in plastic petri dishes (100 × 25 mm), then the insects are counted out into each dish, five or ten insects per dish depending on the number of insects available. There are one or two replicates and usually two or three rates with each compound. Mortality results are taken at 24, 48 and 72 hours. The rating scale is 0 to 9.
(§3) Using the above methods, field trials were carried out against species of 5 orders of insects. The results, which are summarized in the following tables, give the average mortality for the particular insect with a given benzimidazole for each concentration employed. […] These tables contain all results obtained during the summer trials.

[2] = test system: Potato Flea Beetle Adults; assay: Field trial, stomach poison test; format: in vivo
Description: as §1, §2, §3

[3] = test system: Red-Legged Grasshopper Adults; assay: Field trial, stomach poison test; format: in vivo
Description: as §1, §2, §3

[4] = test system: Striped Cucumber Beetle Adults; assay: Field trial, stomach poison test; format: in vivo; set-up: key: mortality rating on a 0 to 9 scale
Description: as §1, §2, §3

Bean Leaf Beetle [5] = assay: Field trial, contact poison test; format: in vivo
Text: (§4) Infested plants are placed in 6 oz. prescription bottles filled with water to keep them from wilting. Cellucotton is wrapped around the plant stem and squeezed into the bottle neck to prevent the insects from drowning.
(§5) A DeVilbiss Special Atomizer (5004) is used at 10 psi to spray the test plant with different concentrations of compounds. The atomizer is held at arm's length to prevent blowing the insects off the host plant. After treating, the bottles are placed on a table covered with brown wrapping paper to catch the dead insects as they drop from the plant. The plants are spaced so the leaves or plants are not touching one another.
(§6) The results are read at 24, 48, and 72 hours when applicable. The rating scale is 0 to 9 where 0 = 0-10 percent and 9 = 91-100 percent mortality.
as §3

[6] = test system: Potato Flea Beetle Adults; assay: Field trial, contact poison test; format: in vivo
Text: as §4, §5, §6, §3

[7] = test system: Red-Legged Grasshopper Adults; assay: Field trial, contact poison test; format: in vivo
Text: as §4, §5, §6, §3

Yellow Mealworm Larvae = assay: Field trial, topical application; format: in vivo; set-up: key: 0 = 0-10% mortality, 9 = 91-100% mortality (0-9 scale)
Description: as §6
(§7) In a variation of the above test, 1 microliter of a test solution containing a predetermined number of micrograms of benzimidazole was applied directly to larvae or adult insects.
as §3

Boll Weevil = assay: Field trial (first summer), topical; format: in vivo, Anthonomus grandis; conditions: .15625 μg/μl
Description: as §7
(§8) During the previous summer similar field trials were conducted employing the same tests as heretofore but with some additional species of insects not included in the later tests. The results listed below are for tests in which an insect mortality was established by a given application route and at a given concentration in a particular test. The same 0 - 9 scoring system is used as is the designation of compounds by alphabetical symbols.

Confused Flour Beetle = assay: Field trial (first summer), topical; format: in vivo; conditions: .078125 μg/μl
Description: as §7, §8

Picnic Beetle = assay: Field trial (first summer), topical; format: in vivo; conditions: .078125 μg/μl
Description: as §7, §8

Aphids - Apple = assay: Field trial, stomach poison test; format: in vivo
Description: as §1, §2, §3

Aphids - Sour Gum = assay: Field trial, stomach poison test; format: in vivo
Description: as §1, §2, §3

Aphids - Tulip Tree = assay: Field trial, stomach poison test; format: in vivo
Description: as §1, §2, §3

Meadow Spittlebug = assay: Field trial, stomach poison test; format: in vivo
Description: as §1, §2, §3

[8] = test system: Southern Corn Rootworm Adults; assay: Field trial, stomach poison test; format: in vivo; set-up: key: mortality rating on a 0 to 9 scale
Description: as §1, §2, §3

[9] = test system: Tarnished Plant Bug Adults; assay: Field trial, stomach poison test; format: in vivo; set-up: key: mortality rating on a 0 to 9 scale
Description: as §1, §2, §3

[10] = test system: Unidentified Green Leafhopper; assay: Field trial, stomach poison test; format: in vivo; set-up: key: mortality rating on a 0 to 9 scale
Description: as §1, §2, §3

Squash Bug Adults = assay: Field trial, contact poison test; format: in vivo; set-up: key: 0-9 rating: 0 = 0-10% mortality, 9 = 91-100% mortality
Text: as §4, §5, §6, §3

[11] = test system: Southern Corn Rootworm Adults; assay: Field trial, contact poison test; format: in vivo
Text: as §4, §5, §6, §3

[12] = test system: Two-Spotted Spider Mite (2-SSM); assay: Miticide test, acute mortality, foliar spray; format: in vivo, Tetranychus urticae
Description: Each 5 mg. sample of technical compound preweighed at Greenfield was dissolved in 2.5 ml. of acetone and diluted with 247.5 ml. of water containing a combination of […]
(§9) The treated cuttings were stored in the greenhouse for 24 hours before evaluation under a binocular disecting microscope in the laboratory. In evaluating the results of the miticide test, each treated cutting was removed from the test tube, observed for live and dead mites at 14 × magnification, and returned immediately to the test tube. A scale of 0-9 was used as before.
The test employing two-spotted spider mites was conducted in similar fashion except that the mites were maintained on squash seedlings or squash cuttings.

Citrus Rust Mite (CRM) = assay: Miticide test, acute mortality, foliar spray; format: in vivo; conditions: after 72 hours
Description: Citrus cuttings were obtained and prepared for testing within 24 hours prior to inoculation with citrus rust mites. To prepare the cuttings, terminals of branches 12 to 14 inches in length were cut from temple orange trees, immediately placed in tap water and taken into the laboratory. Uniform hardwood cuttings, 3 to 4 inches in length, were cut from the branches, all but one hardened leaf was removed from the cuttings, and the remaining leaf was wiped clean with a cotton pad soaked in 10% ethanol solution. Each cutting was immediately placed in tap water in a test tube with the closed leaf extending out of the test tube. Then, a ring of melted lanolin was applied around the petiole to prevent migration of mites from the leaf. One cutting was used for each replicate.
When the leaves were dry immediately after cleaning, citrus rust mites were transferred to the test leaves by cutting a heavily infested colony leaf (from a source colony maintained on citrus seedlings) into 20 to 22 sections (approximately 0.25 by 0.5 inches in size) and using forceps to place 1 section on each leaf cutting. As the section became desiccated the mites moved to the whole leaf and in 20 hours the sections were removed from the leaves for treatment application.
Treatments were applied within 24 hours after inoculation by removing the cuttings from the test tube and submerging the leaves in the treatment solution for 5 seconds by hand and immediately returning the cutting to the test tube. […]
as §9

O=[N+]([O-])c1cc(C(F)(F)F)cc2nc(C(F)F)[nH]c12 [Q, 2-difluoromethyl-4-nitro-6-trifluoromethylbenzimidazole]
average mortality rating (Bean Leaf Beetle [1]; 10 ppm): 0 (0-10 percent)
average mortality rating (Bean Leaf Beetle [1]; 25 ppm): 0 (0-10 percent)
average mortality rating (Bean Leaf Beetle [1]; 50 ppm): 0 (0-10 percent)
average mortality rating ([2]; 5 ppm): 0 (0-10 percent)
average mortality rating ([2]; 10 ppm): 1
average mortality rating ([2]; 25 ppm): 1
average mortality rating ([2]; 50 ppm): 5
average mortality rating ([3]; 10 ppm): 1
average mortality rating ([3]; 25 ppm): 1
average mortality rating ([3]; 50 ppm): 5
average mortality rating ([4]; 10 ppm): 2
average mortality rating ([4]; 25 ppm): 3
average mortality rating ([4]; 50 ppm): 2
average mortality rating ([4]; 100 ppm): 2
average mortality rating (Bean Leaf Beetle [5]; 25 ppm): 0 (0-10 percent)
average mortality rating (Bean Leaf Beetle [5]; 50 ppm): 0 (0-10 percent)
average mortality rating (Bean Leaf Beetle [5]; 100 ppm): 0 (0-10 percent)
average mortality rating ([6]; 10 ppm): 3
average mortality rating ([6]; 25 ppm): 6
average mortality rating ([6]; 50 ppm): 8
average mortality rating ([7]; 10 ppm): 0 (0-10 percent)
average mortality rating ([7]; 25 ppm): 4
average mortality rating ([7]; 50 ppm): 5
average mortality rating (Yellow Mealworm Larvae; 0.03 μg/μl): 1
average mortality rating (Yellow Mealworm Larvae; 0.07 μg/μl): 4
average mortality rating (Yellow Mealworm Larvae; 0.15 μg/μl): 7
insect mortality rating (Boll Weevil): 5
insect mortality rating (Confused Flour Beetle): 7
insect mortality rating (Picnic Beetle): 9 (91-100 percent mortality)

CCOC(=O)n1c(C(F)(F)F)nc2c([N+](=O)[O-])cc(C(F)(F)F)cc21 [U, ethyl 4-nitro-2,6-bis(trifluoromethyl)benzimidazolecarboxylate]
average mortality rating (Aphids - Apple; 25 ppm): 2
average mortality rating (Aphids - Apple; 50 ppm): 4
average mortality rating (Aphids - Apple; 100 ppm): 6
average mortality rating (Aphids - Sour Gum; 25 ppm): 9 (91-100 percent mortality)
average mortality rating (Aphids - Sour Gum; 50 ppm): 7
average mortality rating (Aphids - Sour Gum; 100 ppm): 9 (91-100 percent mortality)
average mortality rating (Aphids - Tulip Tree; 25 ppm): 6
average mortality rating (Aphids - Tulip Tree; 50 ppm): 8
average mortality rating (Aphids - Tulip Tree; 100 ppm): 9 (91-100 percent mortality)
average mortality rating (Meadow Spittlebug; 10 ppm): 5
average mortality rating (Meadow Spittlebug; 25 ppm): 5
average mortality rating (Meadow Spittlebug; 50 ppm): 3
average mortality rating (Meadow Spittlebug; 100 ppm): 0 (0-10 percent)
average mortality rating ([8]; 25 ppm): 5
average mortality rating ([8]; 50 ppm): 3
average mortality rating ([8]; 100 ppm): 3
average mortality rating ([4]; 10 ppm): 2
average mortality rating ([4]; 25 ppm): 1
average mortality rating ([4]; 50 ppm): 4
average mortality rating ([4]; 100 ppm): 9 (91-100 percent mortality)
average mortality rating ([9]; 10 ppm): 0 (0-10 percent)
average mortality rating ([9]; 25 ppm): 1
average mortality rating ([9]; 50 ppm): 6
average mortality rating ([10]; 10 ppm): 3
average mortality rating ([10]; 25 ppm): 7
average mortality rating ([10]; 50 ppm): 9 (91-100 percent mortality)
average mortality rating (Squash Bug Adults; 125 ppm): 5
average mortality rating (Squash Bug Adults; 250 ppm): 5
average mortality rating (Squash Bug Adults; 500 ppm): 7
average mortality rating (Squash Bug Adults; 750 ppm): 7
average mortality rating ([7]; 25 ppm): 9 (91-100 percent mortality)
average mortality rating ([7]; 50 ppm): 9 (91-100 percent mortality)
average mortality rating ([11]; 25 ppm): 4
average mortality rating ([11]; 50 ppm): 9 (91-100 percent mortality)
average mortality rating ([11]; 100 ppm): 9 (91-100 percent mortality)
average mortality rating (Yellow Mealworm Larvae; 0.03 μg/μl): 4
average mortality rating (Yellow Mealworm Larvae; 0.07 μg/μl): 4
average mortality rating (Yellow Mealworm Larvae; 0.15 μg/μl): 6
acute mortality rating ([12]; 6.25 ppm): 1
acute mortality rating ([12]; 12.5 ppm): 3
acute mortality rating ([12]; 25 ppm): 8
acute mortality rating ([12]; 50 ppm): 8
acute mortality rating ([12]; 100 ppm): 9 (91-100 percent mortality)
acute mortality rating (Citrus Rust Mite (CRM); 6.25 ppm): 1
acute mortality rating (Citrus Rust Mite (CRM); 12.5 ppm): 1
acute mortality rating (Citrus Rust Mite (CRM); 25 ppm): 9 (91-100 percent mortality)
acute mortality rating (Citrus Rust Mite (CRM); 50 ppm): 9 (91-100 percent mortality)
acute mortality rating (Citrus Rust Mite (CRM); 100 ppm): 8
